In US20240376097A1, “BCL-2 Inhibitor” (BeiGene Ltd., priority 2020, published 2024):
Read-outs that look alike come from different tables or passages of the source.

Legend:
[1] = tested on: BCL-2 G101V knock-in cell line H96 (derive from RS4;11); assay: Bcl 2-G101V Knock-In RS4;11 Cell Proliferation Assay; format: cell-based; settings: Homo sapiens, RS4;11 Bcl-2 G101V knock-in clone H96, 48 hrs, CellTiter-GLO, read-out: Cellular proliferation assay (IC50, nM) RS4
Procedure, shortened: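 CellTiter-Glo luminescence after 48 h, 37 °C compound treatment (10 concentrations, maximum 1 μM or 10 μM) gave mean IC50 values. Cells were 50,000 per well of H96, a BCL2-G101V knock-in single clone derived from RS4;11 by Cas9 editing.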

[2] = target: recombinant human Bcl-2 D103Y protein (Homo sapiens (Human), UniProt P10415, D103Y); assay: Bcl-2-D103Y Biochemical Assay (TR-FRET); format: binding; settings: for IC50: TR-FRET, FITC labeled Bak peptide; for Ratio of Bcl-2 D103Y/Bcl-2 WT: ratio of IC50; for ratio of Bcl-2 D103Y/Bcl-2 wt, compared with F91b in WO2019210828: comparison in words
Procedure, shortened: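 Compounds titrated against the Bcl-2 D103Y–ligand interaction; inhibition derived from the TR-FRET emission ratio 490 nm/520 nm after 337 nm excitation. Four-parameter logistic fitting gave IC50.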

[3] = tested on: RS4;11 (BCL-2 dependent acute lymphoblastic leukemia cell line); assay: RS4;11 Cell Proliferation Assay; format: cell-based; settings: Homo sapiens, RS4-11, RS4;11 cells, read-out: Cellular proliferation assay (IC50, nM) RS4
Procedure, shortened: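 Viability measured via CellTiter-Glo luminescence after a 48 h, 37 °C exposure to compounds (10 points, highest 1 μM). Seeding was 50,000 RS4;11 cells per well in 10% FBS RPMI-1640; IC50 given as mean.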

[4] = target: Recombinant human Bcl-2 protein (Homo sapiens (Human), UniProt P10415); assay: Bcl-2 TR-FRET Assay; format: binding
Procedure, shortened: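 Displacement of FITC-labelled Bak peptide (0.5 nM) from 0.05 nM human Bcl-2, detected by TR-FRET with Tb-cryptate anti-6His antibody after 1 h at room temperature. Compounds, 10-point series, preincubated 0.5 h with protein in 20 mM potassium phosphate pH 7.5, 50 mM NaCl. IC50s fitted by four-parameter logistic.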

[5] = tested on: recombinant human Bcl-2-G101V protein; assay: Bcl-2-G101V TR-FRET Assay; format: binding; settings: for Ratio of Bcl-2 G101V/WT: ratio of biochemical IC50 Bcl-2 G101V / Bcl-2 WT; for ratio of IC50 of Bcl-2 G101V/Bcl-2 wt, compared with Example F132b in WO2019210828 and ABT-199 (venetoclax): comparison in words
Procedure, shortened: (§1)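 IC50 values derive from four-parameter logistic fitting of percent inhibition data. That inhibition of ligand binding to Bcl-2-G101V is computed from the 490 nm/520 nm TR-FRET ratio under 337 nm excitation, over a rising compound concentration series.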

[6] = target: recombinant human Bcl-2-G101V protein (Homo sapiens (Human), UniProt P10415, G101V); assay: Bcl-2-G101V TR-FRET Assay; format: binding; settings: Bcl-2 G101V mutant, TR-FRET; read-out: Biochemical assay (IC50, nM) Bcl-2 G101V
Procedure, shortened: as §1

[7] = Bcl-2 wild type, TR-FRET, read-out: Biochemical assay (IC50, nM) Bcl-2 WT
[8] = wild type Bcl-2, unit inferred, read-out: Bcl-2 WT

Compound | IC50 [1] [nM] | IC50 [2] [nM] | Ratio of Bcl-2 D103Y/Bcl-2 WT [2] | IC50 [3] [nM] | IC50 [4, 7] [nM] | IC50 [4, 8] [nM] | Ratio of Bcl-2 G101V/WT [5] | IC50 [6] [nM] | ratio of Bcl-2 D103Y/Bcl-2 wt, compared with F91b in WO2019210828 [2] | ratio of IC50 of Bcl-2 G101V/Bcl-2 wt, compared with Example F132b in WO2019210828 and ABT-199 (venetoclax) [5]
CC(C)c1ccccc1C1CN(C2CCC2)CCN1C1CC2(CCN(c3ccc(C(=O)NS(=O)(=O)c4ccc(NC[C@H]5CC[C@](C)(O)CC5)c([N+](=O)[O-])c4)c(Oc4cnc5[nH]ccc5c4)c3)CC2)C1 (stereo partly drawn) [Example 5, 2-((1H-pyrrolo[2,3-b]pyridin-5-yl)oxy)-4-(2-(4-cyclobutyl-2-(2-isopropylphenyl)piperazin-1-yl)-7-azaspiro[3.5]nonan-7-yl)-N-((4-((((1r,4r)-4-hydroxy-4-methylcyclohexyl)methyl)amino)-3-nitrophenyl)sulfonyl)benzamide] | 5.33 | 0.32 | 12 | 0.58 | 0.037 | 0.037 | 12.2 | 0.45 |  | 
CC(C)c1ccccc1C1CN(C2COC2)CCN1C1CC2(CCN(c3ccc(C(=O)NS(=O)(=O)c4ccc(NC[C@H]5CC[C@](C)(O)CC5)c([N+](=O)[O-])c4)c(Oc4cnc5[nH]ccc5c4)c3)CC2)C1 (stereo partly drawn) [Example 6, 2-((1H-pyrrolo[2,3-b]pyridin-5-yl)oxy)-N-((4-((((1r,4r)-4-hydroxy-4-methylcyclohexyl)methyl)amino)-3-nitrophenyl)sulfonyl)-4-(2-(2-(2-isopropylphenyl)-4-(oxetan-3-yl)piperazin-1-yl)-7-azaspiro[3.5]nonan-7-yl)benzamide] | 4.83 | 0.18 | 24 | 0.53 | 0.013 | 0.013 | 24.6 | 0.32 |  | 
CC(C)c1ccccc1C1CN(C2CCOCC2)CCN1C1CC2(CCN(c3ccc(C(=O)NS(=O)(=O)c4ccc(NC[C@H]5CC[C@](C)(O)CC5)c([N+](=O)[O-])c4)c(Oc4cnc5[nH]ccc5c4)c3)CC2)C1 (stereo partly drawn) [Example 10, 2-((1H-pyrrolo[2,3-b]pyridin-5-yl)oxy)-N-((4-((((1r,4r)-4-hydroxy-4-methylcyclohexyl)methyl)amino)-3-nitrophenyl)sulfonyl)-4-(2-(2-(2-isopropylphenyl)-4-(tetrahydro-2H-pyran-4-yl)piperazin-1-yl)-7-azaspiro[3.5]nonan-7-yl)benzamide] | 3.16 | 0.12 | 10 | 0.42 | 0.012 | 0.012 | 17.5 | 0.21 |  | 
COCCN1CCN(C2CC3(CCN(c4ccc(C(=O)NS(=O)(=O)c5cc6c(c([N+](=O)[O-])c5)N[C@H](C[C@H]5CC[C@H](O)CC5)CO6)c(Oc5cnc6[nH]ccc6c5)c4)CC3)C2)C(c2ccccc2C(C)C)C1 (stereo partly drawn) [Example 14, 2-((1H-pyrrolo[2,3-b]pyridin-5-yl)oxy)-N-(((R)-3-(((1r, 4R)-4-hydroxycyclohexyl)methyl)-5-nitro-3,4-dihydro-2H-benzo[b][1,4]oxazin-7-yl)sulfonyl)-4-(2-(2-(2-isopropylphenyl)-4-(2-methoxyethyl)piperazin-1-yl)-7-azaspiro[3.5]nonan-7-yl)benzamide] | 5.16 | 0.084 | 13 | 0.45 | 0.0065 | 0.0065 | 14.3 | 0.093 |  | 
CC(C)c1ccccc1C1CN(CC2CCCCC2)CCN1C1CC2(CCN(c3ccc(C(=O)NS(=O)(=O)c4ccc(NC[C@H]5CC[C@](C)(O)CC5)c([N+](=O)[O-])c4)c(Oc4cnc5[nH]ccc5c4)c3)CC2)C1 (stereo partly drawn) [Example 16, 2-((1H-pyrrolo[2,3-b]pyridin-5-yl)oxy)-4-(2-(4-(cyclohexylmethyl)-2-(2-isopropylphenyl)piperazin-1-yl)-7-azaspiro[3.5]nonan-7-yl)-N-((4-((((1r,4r)-4-hydroxy-4-methylcyclohexyl)methyl)amino)-3-nitrophenyl)sulfonyl)benzamide] | 8.6 | 0.63 | 2.5 | 0.81 | 0.26 | 0.26 | 6.5 | 1.7 | significantly lower | much lower
CC(C)c1ccccc1C1CN(CC23CC(C2)C3)CCN1C1CC2(CCN(c3ccc(C(=O)NS(=O)(=O)c4ccc(NC[C@H]5CC[C@](C)(O)CC5)c([N+](=O)[O-])c4)c(Oc4cnc5[nH]ccc5c4)c3)CC2)C1 (stereo partly drawn) [Example 18, 2-((1H-pyrrolo[2,3-b]pyridin-5-yl)oxy)-4-(2-(4-(bicyclo[1.1.1]pentan-1-ylmethyl)-2-(2-isopropylphenyl)piperazin-1-yl)-7-azaspiro[3.5]nonan-7-yl)-N-((4-((((1r,4r)-4-hydroxy-4-methylcyclohexyl)methyl)amino)-3-nitrophenyl)sulfonyl)benzamide] | 4.9 | 0.43 | 5.4 | 0.61 | 0.079 | 0.079 | 9.0 | 0.71 |  | 
COc1ccc(CN2CCN(C3CC4(CCN(c5ccc(C(=O)NS(=O)(=O)c6ccc(NC[C@H]7CC[C@](C)(O)CC7)c([N+](=O)[O-])c6)c(Oc6cnc7[nH]ccc7c6)c5)CC4)C3)[C@@H](c3ccccc3C(C)C)C2)cc1 [Example 19b, 2-((1H-pyrrolo[2,3-b]pyridin-5-yl)oxy)-N-((4-((((1r,4r)-4-hydroxy-4-methylcyclohexyl)methyl)amino)-3-nitrophenyl)sulfonyl)-4-(2-((S)-2-(2-isopropylphenyl)-4-(4-methoxybenzyl)piperazin-1-yl)-7-azaspiro[3.5]nonan-7-yl)benzamide] | 44 | 16 | 100 | 6.8 | 0.16 | 0.16 | 62.5 | 10 |  | 
CC(C)c1ccccc1C1CN(Cc2ccoc2)CCN1C1CC2(CCN(c3ccc(C(=O)NS(=O)(=O)c4ccc(NC[C@H]5CC[C@](C)(O)CC5)c([N+](=O)[O-])c4)c(Oc4cnc5[nH]ccc5c4)c3)CC2)C1 (stereo partly drawn) [Example 20, 2-((1H-pyrrolo[2,3-b]pyridin-5-yl)oxy)-4-(2-(4-(furan-3-ylmethyl)-2-(2-isopropylphenyl)piperazin-1-yl)-7-azaspiro[3.5]nonan-7-yl)-N-((4-((((1r,4r)-4-hydroxy-4-methylcyclohexyl)methyl)amino)-3-nitrophenyl)sulfonyl)benzamide] | 5.91 | 0.25 | 4.6 | 0.62 | 0.053 | 0.053 | 10.9 | 0.58 |  | 
CC(C)c1ccccc1C1CN(Cc2cnn(C)c2)CCN1C1CC2(CCN(c3ccc(C(=O)NS(=O)(=O)c4ccc(NC[C@H]5CC[C@](C)(O)CC5)c([N+](=O)[O-])c4)c(Oc4cnc5[nH]ccc5c4)c3)CC2)C1 (stereo partly drawn) [Example 22, 2-((1H-pyrrolo[2,3-b]pyridin-5-yl)oxy)-N-((4-((((1r,4r)-4-hydroxy-4-methylcyclohexyl)methyl)amino)-3-nitrophenyl)sulfonyl)-4-(2-(2-(2-isopropylphenyl)4-((1-methyl-1H-pyrazol-4-yl)methyl)piperazin-1-yl)-7-azaspiro[3.5]nonan-7-yl) benzamide] | 2.6 | 0.12 | 9.2 | 0.46 | 0.013 | 0.013 | 6.1 | 0.079 |  | 
CC(C)c1ccccc1C1CN(Cc2ccccc2)CCN1C1CC2(CCN(c3ccc(C(=O)NS(=O)(=O)c4ccc(NC[C@H]5CC[C@](C)(O)CC5)c([N+](=O)[O-])c4)c(Oc4cnc5[nH]ccc5c4)c3)CC2)C1 (stereo partly drawn) [Example 23, 2-((1H-pyrrolo[2,3-b]pyridin-5-yl)oxy)-4-(2-(4-benzyl-2-(2-isopropylphenyl)piperazin-1-yl)-7-azaspiro[3.5]nonan-7-yl)-N-((4-((((1r,4r)-4-hydroxy-4-methylcyclohexyl)methyl)amino)-3-nitrophenyl)sulfonyl)benzamide] | 2.66 | 0.26 | 2 | 0.39 | 0.45 | 0.13 | 4.7 | 2.1 | significantly lower | much lower
